Test results as given in US5888994A, “Fluorinated Vitamin D3 analogs” (Hoffmann-La Roche Inc., priority 1997, dated 1999).

What was measured:
HL-60 cells = experiment: HL-60 cell differentiation (oxidative burst via NBT reduction); format: cell-based; settings: Homo sapiens, 72 h, 3 days, NBT reduction at 540 nm, mean of 3 wells, read-out: ED50 (concentration leading to 50% of maximal differentiation achieved with 100-1000 nM calcitriol)
Method: The induction of differentiation of HL-60 cells was assayed by measuring their oxidative burst potential via the reduction of NBT (Nitrobluetetrazolium).
30,000 cells/90 μl of RPMI/FCS were seeded into flat-bottomed microtiter wells. 10 μl of vitamin D derivatives diluted in complete medium were added at the same time to yield final concentrations between 10^-11 and 10^-6 M (stock solutions of 10^-2 M in ethanol were kept at -20° C. and protected from light).
Values were expressed as percent of maximal differentiation achieved with 100-1000 nM calcitriol in the same experiment.

HaCaT cells = experiment: Inhibition of keratinocyte proliferation (3H-thymidine uptake, HaCaT); format: cell-based; settings: HaCaT human keratinocyte line, 6 days of culture
Method: HaCaT cell line--The immortalized human cell line HaCaT was used. ^3 H-thymidine incorporation was measured in exponentially growing cultures after 6 days of culture in presence of the test compound.
Cell culture--HaCaT cells were cultured in Dulbecco's Modified Eagle Medium (DMEM) and Nutrient Mixture Ham's F12 (F12), 3:1 (v/v, ICN) containing 4.5 g/l glucose and supplemented with 10% fetal calf serum (Gibco, FCS), L-glutamine (Gibco, 2mM), penicillin (Gibco, 50 UI/ml), streptomycin (Gibco, 50 μg/ml), EGF (10 ng/ml), hydrocortisone (400 ng/ml), cholera toxin (8.5 ng/ml) and insulin (5 ng/ml). The cells were maintained in a humidified atmosphere containing 5% CO2 and 95% air and passaged every 3-4 days.
Inhibition of ^3 H-thymidine uptake--HaCaT cells (250 cells in complete culture medium) were seeded into 96-well culture dishes and incubated at 37° C. with 5% CO2 and 95% air for 6 days. Inhibitors, dissolved at 10× concentration in 1% ethanol, were added immediately at the beginning of the assay. ^3 H-thymidine (5 Ci/mmol, Amersham) was added at a concentration of 1 μCi/well and cells were pulse-labelled for the last 6 hours of the growth period. Cells were then trypsinized for 10 minutes at 37° C. under a vigorous agitation and harvested on to a 96-well GF/C filter plate (Uni Filter, Packard) using a Micro Mate 196 cell harvester (Packard). After drying at 40° C. under vacuum for 20-30 minutes, 2 μl of Micro Scint 0 scintillator (Packard) were added and the radioactivity bound to the filters was counted on a TOP COUNT (Packard).

[1] = Calcium liability (tolerance test in mice); settings: mouse, in vivo, sc, daily subcutaneous administration for 4 consecutive days, 5 day treatment period, read-out: HTD (highest tolerated dose: dose which results in zero weight gain)
Source text: Profound changes in calcium homeostasis strongly affect the weight development of the animals. This parameter was used as a primary test for tolerance.
Mice (25-30 g body weight) received daily subcutaneous administrations of the vitamin D derivative for 4 consecutive days. Body weight was registered just before and at the end of a […] treatment period. The "highest tolerated dose" (HTD) is the dose which results in zero weight gain during this treatment period.

sebaceous cells = experiment: Inhibition of human sebocyte proliferation in vitro; format: cell-based; settings: tested at 10^-6, 10^-7 and 10^-8 M, vs vehicle-treated culture, read-out: ED50 (amount of compound necessary to inhibit the proliferation of sebaceous cells by 50%)
Method: Sebaceous cells were isolated from adult human sebaceous glands by a combination of enzymatic and mechanical methods (Doran et al., Characterization of Human Cells In Vitro, J. Invest. Dermatol. 96:34-8 (1991)). The cells were cultured in Iscove's medium containing 10% fetal calf serum and 4 μg/ml dexamethasone on a layer of growth-arrested 3T3 mouse fibroblasts. Cells were plated in medium without the test compound and then given test compound in fresh medium, containing the test compound, every 48 hours. On the day of harvesting, the cultures were rinsed with 0.03% EDTA in PBS, to remove only the 3T3 fibroblasts, followed by incubation in 0.05% trypsin/0.03% EDTA. The cells were suspended, mixed vigorously to prepare a single cell suspension and counted in a hemocytometer.
Stock solutions of compounds were made up as 10^-2 M solutions in degassed 100% ethanol and stored at -20° C. in the dark. During experimental use, the solutions, which have been aliquoted, were brought to room temperature and used by diluting directly into complete medium to appropriate concentration.
The compounds were tested for the inhibition of proliferation of sebaceous cell growth in vitro at 10^-6, 10^-7 and 10^-8 M.
The results are summarized in Table III below as the amount of compound necessary to inhibit the proliferation of sebaceous cells by 50% (ED50) in nM as compared to a vehicle-treated culture.

| Compound | EC50 (HL-60 cells) [nM] | IC50 (HaCaT cells) [nM] | MTD at 120 h [1] [mg/kg] | IC50 (sebaceous cells) [nM] |
| --- | --- | --- | --- | --- |
| C=C1/C(=C\C=C2/CCC[C@]3(C)[C@@H]([C@H](C)CCCC(C)(C)O)CC[C@@H]23)C[C@@H](O)C[C@@H]1O [1,25-Dihydroxycholecalciferol, reference compound] | 8 | – | – | – |
| C=C1/C(=C\C=C2/CCC[C@]3(C)C([C@H](C)CC#CC(C)(O)C(F)(F)F)=CC[C@@H]23)C[C@@H](O)C[C@@H]1F (stereo partly drawn) [1α-fluoro-25(R,S)-hydroxy-16-ene-23-yne-26-trifluoro-cholecalciferol] | 3.7 | 11 | 0.02 | – |
| C=C1/C(=C\C=C2/CCC[C@]3(C)C([C@H](C)CC#CC(C)(O)C(F)(F)F)=CC[C@@H]23)C[C@@H](O)C[C@@H]1O (stereo partly drawn) [1,25(R,S)-Dihydroxy-16-ene-23-yne-26-trifluoro-cholecalciferol] | 0.15 | 10 | 0.001 | 1 |
| C=C1CC[C@H](O)C/C1=C/C=C1\CCC[C@]2(C)C([C@H](C)CC#CC(C)(O)C(F)(F)F)=CC[C@@H]12 (stereo partly drawn) [25(R,S)-Hydroxy-16-ene-23-yne-26-trifluoro-cholecalciferol] | 160 | 650 | 0.6 | – |
| C[C@H](CC#CC(C)(O)C(F)(F)F)C1=CC[C@H]2/C(=C/C=C3C[C@@H](O)C[C@H](O)C3)CCC[C@]12C (stereo partly drawn) [1,25(R,S)-Dihydroxy-16-ene-23-yne-26-trifluoro-19-nor-cholecalciferol] | 0.37 | 5.1 | 0.002 | – |
